According to patent EP1787658B1, “Sustained release formulations of somatostatin analogue inhibitors of growth hormone” (CHEMI S.p.A., priority 2005, dated 2012):

Assay: Plasma levels of somatostatin analogue after a single s.c. or i.m. administration, by LC/MS-MS
Format: in vivo, rats
Details: after both s.c. and i.m injection
Protocol: Two groups of animals were treated with a single administration each s.c. and i.m, of 100µl of the formulation (3.37 mg of oligopeptide equal to 15mg/Kg). Blood samples from 5 animals per time point were collected at different time points up to 49 days after treatment. The plasma levels of somatostine analogue were determined by a LC/MS-MS method.
Mean plasma, levels and standard deviations for each time point are shown in the table below (Table 2) and in Figures 1 and 2.

C[C@@H](O)[C@@H]1NC(=O)[C@H](CCCCN)NC(=O)[C@@H](Cc2c[nH]c3ccccc23)NC(=O)[C@H](Cc2ccccc2)NC(=O)[C@@H](NC(=O)[C@H](N)Cc2ccccc2)CSSC[C@@H](C(=O)N[C@H](CO)[C@@H](C)O)NC1=O [Octreotide acetate]
presence of detectable levels of the oligopeptide: up to 49 days
